One experiment deals with urogenous smell. Put plainly: Test Example 3: smell of fresh urine of cats, potassium phytate/lactose powder in food. The class given is in vivo, crossbred mature cats. Set-up: key to Deodorizing Effects 1st day / Deodorizing Effects 3rd day / Deodorizing Effects 5th day / Deodorizing Effects 7th day: 1: No change; 2: Weaken; 3: Almost no recognizable smell. As for the experimental part: A powder composition was prepared by mixing potassium phytate and lactose, which composition containing the phytate in an amount of 24mg/g. The composition was mixed with a powdered food which was […] by crossbred mature cats (8 heads, body weight of about 5kg) in an amount of 1g/head/day based on the composition over 7 days. After 1, 3, 5 and 7 days from the first administration, fresh urine was taken with use of a catheter to immediately check a degree of its smell by 3 judges. […]

The test system of a further experiment is ozostomy. The class given is in vivo, normal persons. The settings on record: 3 judges. As for the experimental part: Following substances generating unpleasant smell were intaken by each panel (3 normal persons) who immediately drinks an aqueous solution of potassium phytinate (105mg/10ml). On contrary thereto, each control panel drinks were drinking water in same amount.
An inspection of ozostmy was carried out from time to time at intervals by 3 judges (to be judged as positive, when 2 or 3 judges feel the unpleasant smell) and by self notification of the experimented person.
Unpleasant smell generating materials : • a) Garlic (10g as grated one), • b) Leek (50g as cooked one), • c) Scallion (50g as pickled one), • d) Onion (100g as grated one), • e) Welsh onion (100g as cooked one), • f) Tobacco (carrying out a functional test by the third party on smokers who smoke more than 50 cigarette per diem), and • g) Alcohol (drink 300ml of Japanese sake, when the stomach of experimented person emties).

The mark [1] stands for this setting: cats, powder 24mg/g, 1g/head/day in food.

The source of these data is patent publication EP0326963B1, “Deodorant as well as deodorizing food, drink and seasoning” (priority 1988, dated 1989).

The structures appear in SMILES notation. Several values for one entry are separate records, joined by “and”; a condition that tells them apart may be missing. Equal values may be shown once.

With `O=P(O)(O)O[C@H]1[C@H](OP(=O)(O)O)[C@@H](OP(=O)(O)O)[C@H](OP(=O)(O)O)[C@@H](OP(=O)(O)O)[C@H]1OP(=O)(O)O` [potassium phytate, Potassium phytate], the “Efficiency 1st day” value in the experiment with urogenous smell (cats (8 heads), powder 24mg/g, 1g/head/day in food, 1st day) was 0/8. For the same compound, the “Efficiency 3rd day” value in the experiment with urogenous smell (cats (8 heads), powder 24mg/g, 1g/head/day in food, 3rd day) is 2/8. Further, the “Efficiency 5th day” value in the experiment with urogenous smell (cats (8 heads), powder 24mg/g, 1g/head/day in food, 5th day) was 8/8. Moreover, the “Efficiency 7th day” value in the experiment with urogenous smell (cats (8 heads), powder 24mg/g, 1g/head/day in food, 7th day) is on record as 8/8. For the same compound, in the experiment on urogenous smell (setting [1]), the “deodorizing effect of the compound appears” value was “by third day” and the urogenous smell disappeared result is listed as “on fifth day”. Besides, the “Deodorizing Effects 1st day” value with urogenous smell (individual cat, powder with lactose 24mg/g, 1g/head/day in food over 7 days, 1st day) was 1 (4×) and 2 (4×). The “Deodorizing Effects 3rd day” value in the experiment on urogenous smell (individual cat, powder with lactose 24mg/g, 1g/head/day in food, 3rd day) was 3 (2×) and 2 (6×). For the same compound, the “Deodorizing Effects 5th day” value with urogenous smell (individual cat, powder with lactose 24mg/g, 1g/head/day in food, 5th day) is given as 3. Further, the “Deodorizing Effects 7th day” value in the experiment with urogenous smell (individual cat, powder with lactose 24mg/g, 1g/head/day in food, 7th day) is given as 3. Besides, the “ozostomy on the test group, first inspection” value in the experiment with ozostomy (aqueous solution 105mg/10ml drunk immediately after intake of smell generating material, 1 hour from the intake) was “not so strong”. Also, the “ozostomy on the test group, second inspection” value with ozostomy (aqueous solution 105mg/10ml, 3 hours from the intake) is “apparently decreases”.
